Where two headings read alike, the source gives them in different places.
Tests used:
[1] = T1 of hyperpolarized ^15N sites bound to labile protons upon dissolution in H2O and D2O, 5.8 T; format: physicochemical; conditions: for T1 upon dissolution in D2O / T1 upon dissolution in H2O: ≈37° C. (35-40° C.), 5.8 T, n=2; for T1 prolongation D2O versus H2O: deuteration of labile protons
Method: Spin polarization and fast dissolution were carried out in a dDNP commercial device (HyperSense, Oxford Instruments Molecular Biotools, Oxford, UK). The sample was maintained at 1.4-1.5 K and was irradiated at 94.110 GHz. ^15N NMR spectroscopy was performed in a 5.8 T NMR spectrometer (RS2D, Mundolsheim, France), using a 10-mm broadband NMR probe. The temperature in the NMR tube was continuously monitored using an NMR compatible temperature probe (Osensa, Burnaby, BC, Canada). Spectral processing and calculation of integrated intensities was performed using MNova (Mestrelab Research, Santiago de Compostela, Spain). Liquid state polarization was determined by comparing the integrated intensity of the first hyperpolarized spectrum to the integrated intensity of a standard containing a known concentration of ^15N label, where the thermal equilibrium polarization is given as PolTE=tanh(ℏγB/2kbT) Determination of the T1 of the hyperpolarized sites was performed by curve fitting of the signal decay to the following equation: S(t)=S0·e^−t/T^1·(cos θ)^t/TR in which TR, the time between excitations, and θ, the nutation angle of excitation, are known. For measurements of T1 in whole blood, 5.5 ml of whole blood in heparinized tube was obtained from a healthy volunteer and maintained at 20° C. for 2.5 h. Ten minutes before dissolution of the hyperpolarized urea sample, the blood was loaded into a NMR tube in the spectrometer and maintained at 36° C. The hyperpolarized urea sample was dissolved into a container outside the magnet and was injected in 0.5-1.0 mL aliquots followed by ≈2 ml of air through a tube at the bottom of the sample, to ensure no sample remained in the inlet line and complete mixing of the freshly injected solution with the blood. The sample was visually inspected at the end of the experiment to confirm that the hyperpolarized solution was well mixed with the blood and that there was no separation of the blood. Curve fitting was performed using Matlab (Mathworks, Natick, Mass., USA). Statistical analysis was performed using Microsoft Excel (Microsoft, Ra'anana, Israel).

[2] = in vivo; cited from earlier work
[3] = From the text: The dissolution process is detailed in the results section. […] Unless otherwise stated, the dissolved hyperpolarized solution was directly injected to a screw cup 10 mm NMR tube in a 5.8T NMR spectrometer via a PTFE line of about 2.4 m length with 3 s of He(g) chase. This line was wrapped with a heating tape (MRC, Holon, Israel) that enabled control over the temperature of the dissolution medium arriving to the NMR tube directly or to a collection tube in the fringe field of the spectrometer. ^15N-Nuclear Magnetic Resonance (NMR) spectra were continuously recorded immediately at the start of the dissolution process. […] In the experiments in body fluids and in experiments in which the hyperpolarized solution was first cooled to temperatures below room temperature, the dissolution media was first collected in a conical tube placed in the spectrometer's fringe field, and then was injected by syringe via a PEEK line to the NMR tube that was placed in the magnet.
For heating this hyperpolarized solution prior to arrival to the NMR tube, the PTFE line leading the hyperpolarized solution out of the spin polarization device was wrapped with a heating tape connected to a temperature controller (MRC, Holon, Israel). In this way, hyperpolarized solutions at temperatures higher than 26° C. could be obtained. For cooling the hyperpolarized solution, the heating tape was not turned on and the dissolution medium was mixed with 0 to 4 mL of D2O at 2° C. in a collection tube placed in ice-water bath in the fringe field of the magnet, prior to injection.
^15N-NMR spectroscopy was performed in a 5.8T NMR spectrometer (RS2D, Mundolsheim, France), using a 10 mm broad-band NMR probe. The chemical shift scale of the spectra presented herein was calibrated based on a separate measurement of a [^15N2]urea standard sample (4M in H2O:D2O 80:20), carried out prior to hyperpolarized ^15N acquisitions, calibrating the [^15N2]urea signal to −306 ppm (relative to nitromethane). For enhancement factor calculation, the spectra were collected with a high flip angle of […] and a repetition time of 2 s. For T1 calculation, the spectra were acquired with a low flip angle of […] and a longer repetition time of 5-10 s.
The temperature in the NMR tube was continuously monitored using an NMR compatible temperature probe (Osensa, Burnaby, BC, Canada).
Determination of the T1 of the hyperpolarized sites was performed by curve fitting of the signal decay to the following equation: S(t)=S0·e^−t/T^1·(cos θ)^t/TR, in which TR, the time between excitations, and θ, the nutation angle of excitation, are known. Curve fitting was performed using Matlab (Mathworks, Natick, Mass., USA).

Row | Structure (SMILES) | T1 upon dissolution in D2O [1] [s] | T1 upon dissolution in H2O [1] [s] | T1 prolongation D2O versus H2O [1] [fold] | half-life in the circulation [2] [h] | also measured
1 | O=C1CCC(=O)[15NH]1 [[^15N]succinimide] | 215 ± 2 | 45 ± 3 | 4.8 | – | –
2 | N[13C](N)=O [carbon-13 labeled urea, reference compound] | – | – | – | – | decrease in polarization during 1 min transfer and administration ([1]; entire process at physiological temperatures): ≈ 80%
3 | Cl.N[C@@H](CCCNC(=[15NH])[15NH2])C(=O)O [[guanido-^15N2]arginine, L-[guanido-^15N2]arginine:HCl] | 44 ± 1 | 6.6 ± 0.3 | 6.7 | – | –
4 | O=NO [Nitrite (NO2), Nitrite] | – | – | – | 0.333 | –
5 | O=[15N][O-].[Na+] [[^15N]nitrite, sodium [^15N]nitrite] | – | – | – | – | T1 ([3]; D2O, n=2): 14.8 ± 0.6 s; T1 ([3]; H2O, n=2): 13.6 ± 0.5 s; T1 ([3]; same sample, D2O (co-polarized nitrate and nitrite)): 14 s
6 | O=[N+]([O-])O [nitrate (NO3—), nitrate] | – | – | – | 5 to 6 | –
